The target of the test is T1, VPS34 (Homo sapiens, UniProt Q8NEB9).
T1 construct: GST (N); host or cells: SF9 insect cells (baculovirus)
The test can be described thus: Human VPS34 enzyme assay (Adapta TR-FRET). The test is classed as biochemical. The following applies: for inhibition at 1.11 µM: 1 h, at a 1.11 μM concentration, read-out: VPS34 Percent Inhibition. On the procedure: VPS34 (accession number GB:BCO33004) was cloned into pDEST20-Thombin as N-terminal GST tagged fusion proteins using the Gateway system (Invitrogen, catalog#11804-013). The sequences were verified before recombinant protein expression using the Baculovirus Expression System with Gateway® Technology.
For expression VPS34 was infected at 1MOI in SF9 cells and harvested 72 hours post infection.
For purification, VPS34 is purified by Glutathione Sepharose 4 Fast Flow (GE Healthcare #17-5132-03) followed by HiTrap Q (GE Healthcare #17-1153-01).
Human VPS34 Enzyme Assay Method
100 nL compounds in DMSO are added to wells of a 384 well microtitre plate (Greiner 780076). At room temperature: 5 ul VPS34 reaction buffer (Invitrogen Assay Buffer Q (diluted 1 in 5 with nanopure water) plus 2 mM DTT and 2 mM MnCl2) containing ATP (20 uM, Promega) and 200 uM PI-PS substrate (Invitrogen PV5122) is added followed immediately by 5 ul VPS34 reaction buffer (as above) containing VPS34 (5 nM, Millennium Protein Sciences Group) and the mixture is incubated with shaking at room temperature for 1 hour. Then 5 ul VPS34 stop-detect mix (as per Invitrogen Adapta Assay kit (PV5009) instructions (contains kinase quench buffer, TR-FRET buffer, Adapta Eu anti-ADP antibody and Alexa Fluor 647 ADP tracer)) is added to quench the reaction. The plates are then incubated for 30 minutes at room temperature with shaking and then read on a BMG PheraStar Plus reader.
For the assay methods described above, test compound percent inhibition, at various concentrations, is calculated relative to control (DMSO and EDTA) treated samples. Compound concentration versus percent inhibition curves are fitted to generate IC50 values. One skilled in the art will appreciate that the values generated either as percentage inhibition at a single concentration or IC50 values are subject to experimental variation.
Background: Time-resolved FRET reads energy transfer from a long-lived donor to a nearby acceptor.

Structures are written as SMILES.

T1 sequence (Q8NEB9 whole entry): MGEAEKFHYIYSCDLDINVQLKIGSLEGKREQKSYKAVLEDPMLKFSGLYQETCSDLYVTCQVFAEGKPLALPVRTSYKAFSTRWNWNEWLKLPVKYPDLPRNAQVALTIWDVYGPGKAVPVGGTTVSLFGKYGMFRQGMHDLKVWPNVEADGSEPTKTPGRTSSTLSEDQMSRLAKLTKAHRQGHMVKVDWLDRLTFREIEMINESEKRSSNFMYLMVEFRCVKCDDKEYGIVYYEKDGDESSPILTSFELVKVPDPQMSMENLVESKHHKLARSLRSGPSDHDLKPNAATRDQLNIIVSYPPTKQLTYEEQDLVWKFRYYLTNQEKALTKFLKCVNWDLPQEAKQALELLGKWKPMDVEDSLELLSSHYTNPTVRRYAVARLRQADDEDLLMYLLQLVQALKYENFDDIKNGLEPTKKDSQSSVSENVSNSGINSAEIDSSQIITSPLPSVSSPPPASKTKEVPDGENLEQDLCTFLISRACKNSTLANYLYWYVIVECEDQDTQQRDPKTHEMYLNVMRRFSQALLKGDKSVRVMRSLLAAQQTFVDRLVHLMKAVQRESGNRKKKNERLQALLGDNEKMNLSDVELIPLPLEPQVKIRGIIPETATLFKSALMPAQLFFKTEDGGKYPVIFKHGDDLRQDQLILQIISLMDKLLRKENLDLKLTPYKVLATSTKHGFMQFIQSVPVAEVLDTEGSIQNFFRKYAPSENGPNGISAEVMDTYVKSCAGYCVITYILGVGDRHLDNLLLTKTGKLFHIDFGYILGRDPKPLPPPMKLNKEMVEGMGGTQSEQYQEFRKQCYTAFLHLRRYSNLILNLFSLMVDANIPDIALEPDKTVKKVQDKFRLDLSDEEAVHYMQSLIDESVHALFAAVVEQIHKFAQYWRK

Consider `CC(=O)Nc1cc(-n2cc(-c3nc[nH]n3)c(-c3ccc(C(F)(F)F)cc3Cl)n2)c(C)cn1` [I-66, N-(4-{3-[2-chloro-4-(trifluoromethyl)phenyl]-4-(1H-1,2,4-triazol-3-yl)-1H-pyrazol-1-yl}-5-methylpyridin-2-yl)acetamide], for which the IC50 (commonly the concentration that gives 50% inhibition) fell in the range of 150 to 1000 nM and the inhibition (usually the share of the control response that was lost under treatment) at 1.11 µM stood at 89%. As for `Cc1cnc(NC(=O)C2CC2)cc1-n1cc(-c2nc[nH]n2)c(-c2ccc(Cl)cc2Cl)n1` [I-67, N-{4-[3-(2,4-dichlorophenyl)-4-(1H-1,2,4-triazol-3-yl)-1H-pyrazol-1-yl]-5-methylpyridin-2-yl}cyclopropanecarboxamide], the inhibition at 1.11 µM is > 99%. The same measure, in the same setting: under `CCOc1ccc(-c2nn(-c3cc(NC(C)=O)ncc3C)cc2-c2nc[nH]n2)c(Cl)c1` [I-68, N-{4-[3-(2-chloro-4-ethoxyphenyl)-4-(1H-1,2,4-triazol-3-yl)-1H-pyrazol-1-yl]-5-methylpyridin-2-yl}acetamide] stands > 99%; under `CC(=O)Nc1cc(-n2cc(-c3nc[nH]n3)c(-c3ccccc3C)n2)c(C)cn1` [I-69, N-{5-methyl-4-[3-(2-methylphenyl)-4-(1H-1,2,4-triazol-3-yl)-1H-pyrazol-1-yl]pyridin-2-yl}acetamide], > 99%. Turning to `CC(=O)Nc1cc(-n2cc(C(N)=O)c(-c3cc(CN(C)C)ccc3Cl)c2)c(C)cn1` [I-70, 1-(2-acetamido-5-methylpyridin-4-yl)-4-{2-chloro-5-[(dimethylamino)methyl]phenyl}-1H-pyrrole-3-carboxamide], the IC50 is 1000 to 5000 nM and the inhibition at 1.11 µM is 20%. Taken in the same sequence, the figures for `Cc1cnc(NC(=O)C2CC2)cc1-n1cc(C(N)=O)c(-c2cc(CN3CCCC3)ccc2Cl)c1` [I-71, 4-[2-chloro-5-(pyrrolidin-1-ylmethyl)phenyl]-1-{2-[(cyclopropylcarbonyl)amino]-5-methylpyridin-4-yl}-1H-pyrrole-3-carboxamide] were 150 to 1000 nM and > 99%. With `Cc1cnc(NC(=O)OC2CCCCC2)cc1-n1cc(C(N)=O)c(-c2ccccc2Cl)c1` [I-72, cyclohexyl {4-[3-carbamoyl-4-(2-chlorophenyl)-1H-pyrrol-1-yl]-5-methylpyridin-2-yl}carbamate], the IC50 is 150 to 1000 nM and the inhibition at 1.11 µM was 71%. In the case of `Cc1cnc(NC(=O)OC2CCCCC2)cc1-n1cc(-c2nc[nH]n2)c(-c2ccccc2Cl)c1` [I-73, cyclohexyl {4-[3-(2-chlorophenyl)-4-(1H-1,2,4-triazol-3-yl)-1H-pyrrol-1-yl]-5-methylpyridin-2-yl}carbamate], the inhibition at 1.11 µM was > 99%.

Turning to `COCCC(=O)Nc1cc(-n2cc(-c3nc[nH]n3)c(-c3ccccc3Cl)c2)c(C)cn1` [I-74, N-{4-[3-(2-chlorophenyl)-4-(1H-1,2,4-triazol-3-yl)-1H-pyrrol-1-yl]-5-methylpyridin-2-yl}-3-methoxypropanamide], the inhibition at 1.11 µM is > 99%.

Turning to `Cc1cnc(N)cc1-n1cc(C(N)=O)c(-c2cc(CN3CCCC3)ccc2Cl)c1` [I-75, 1-(2-amino-5-methylpyridin-4-yl)-4-[2-chloro-5-(pyrrolidin-1-ylmethyl)phenyl]-1H-pyrrole-3-carboxamide], the IC50 is 1000 to 5000 nM and the inhibition at 1.11 µM stood at 15%. For `CC(=O)Nc1cc(-n2cc(-c3nc[nH]n3)c(-c3cc(CN(C)C)ccc3Cl)c2)c(C)cn1` [I-76, N-{4-[3-{2-chloro-5-[(dimethylamino)methyl]phenyl}-4-(1H-1,2,4-triazol-3-yl)-1H-pyrrol-1-yl]-5-methylpyridin-2-yl}acetamide], the IC50 is 1000 to 5000 nM and the inhibition at 1.11 µM was 23%.

Take `CC(=O)Nc1cc(-n2cc(C(N)=O)c(-c3cc(CN4CCCC4)ccc3Cl)c2)c(C)cn1` [I-77, 1-(2-acetamido-5-methylpyridin-4-yl)-4-[2-chloro-5-(pyrrolidin-1-ylmethyl)phenyl]-1H-pyrrole-3-carboxamide]: the inhibition at 1.11 µM was 79%. Consider `COCCOC(=O)Nc1cc(-n2cc(-c3nc[nH]n3)c(-c3ccccc3Cl)c2)c(C)cn1` [I-78, 2-methoxyethyl {4-[3-(2-chlorophenyl)-4-(1H-1,2,4-triazol-3-yl)-1H-pyrrol-1-yl]-5-methylpyridin-2-yl}carbamate], for which the half-maximal inhibitory concentration (IC50) was < 50 nM and the inhibition at 1.11 µM is > 99%.

As to `COCCC(=O)Nc1cc(-n2cc(C(N)=O)c(-c3ccccc3Cl)c2)c(C)cn1` [I-79, 4-(2-chlorophenyl)-1-{2-[(3-methoxypropanoyl)amino]-5-methylpyridin-4-yl}-1H-pyrrole-3-carboxamide], the inhibition at 1.11 µM was > 99%. The same measure, in the same setting: under `COC(=O)Nc1cc(-n2cc(C(N)=O)c(-c3cc(CN4CCCC4)ccc3Cl)c2)c(C)cn1` [I-80, methyl (4-{3-carbamoyl-4-[2-chloro-5-(pyrrolidin-1-ylmethyl)phenyl]-1H-pyrrol-1-yl}-5-methylpyridin-2-yl)carbamate] stands > 99%.

Consider `Cc1cnc(NC(=O)OCCF)cc1-n1cc(-c2nc[nH]n2)c(-c2ccccc2Cl)c1` [I-81, 2-fluoroethyl {4-[3-(2-chlorophenyl)-4-(1H-1,2,4-triazol-3-yl)-1H-pyrrol-1-yl]-5-methylpyridin-2-yl}carbamate], for which the IC50 is < 50 nM and the inhibition at 1.11 µM was > 99%. Turning to `Cc1cnc(NC(=O)C2CC2)cc1-n1cc(-c2ncc[nH]2)c(-c2ccccc2Cl)c1` [I-82, N-{4-[3-(2-chlorophenyl)-4-(1H-imidazol-2-yl)-1H-pyrrol-1-yl]-5-methylpyridin-2-yl}cyclopropanecarboxamide], the inhibition at 1.11 µM was > 99%. On the same count and under the same terms, the result for `Cc1cnc(NC(=O)OCCF)cc1-n1cc(C(N)=O)c(-c2ccccc2Cl)c1` [I-83, 2-fluoroethyl {4-[3-carbamoyl-4-(2-chlorophenyl)-1H-pyrrol-1-yl]-5-methylpyridin-2-yl}carbamate] reads > 99%. As for `Cc1cnc(NC(=O)C2CC2)cc1-n1cc(-c2nc[nH]n2)c(-c2cc(CN3CCCC3)ccc2Cl)c1` [I-84, N-(4-{3-[2-chloro-5-(pyrrolidin-1-ylmethyl)phenyl]-4-(1H-1,2,4-triazol-3-yl)-1H-pyrrol-1-yl}-5-methylpyridin-2-yl)cyclopropanecarboxamide], the IC50 is < 50 nM and the inhibition at 1.11 µM was > 99%. Taken in the same sequence, the figures for `CC(=O)Nc1cc(-n2cc(CO)c(-c3ccccc3Cl)c2)c(C)cn1` [I-85, N-{4-[3-(2-chlorophenyl)-4-(hydroxymethyl)-1H-pyrrol-1-yl]-5-methylpyridin-2-yl}acetamide] were 150 to 1000 nM and 93%. The matching figures for `CC(=O)Nc1cc(-n2cc(-c3ncn[nH]3)c(-c3ccnc(Cl)c3)n2)c(C)cn1` [I-106, N-{4-[3-(2-chloropyridin-4-yl)-4-(1H-1,2,4-triazol-5-yl)-1H-pyrazol-1-yl]-5-methylpyridin-2-yl}acetamide]: 150 to 1000 nM and 54%. Taken in the same sequence, the figures for `CC(=O)Nc1cc(-n2cc(-c3cccc(N)n3)c(-c3ccccc3Cl)n2)c(C)cn1` [I-107, N-{4-[4-(6-aminopyridin-2-yl)-3-(2-chlorophenyl)-1H-pyrazol-1-yl]-5-methylpyridin-2-yl}acetamide] were 150 to 1000 nM and 54%. With `Cc1cnc(N)cc1-n1cc(-c2nnc[nH]2)c(-c2ccccc2Cl)n1` [I-108, 4-[3-(2-chlorophenyl)-4-(4H-1,2,4-triazol-3-yl)-1H-pyrazol-1-yl]-5-methylpyridin-2-amine], the IC50 was in the range of 1000 to 5000 nM and the inhibition at 1.11 µM turned out to be 10%. Taken in the same sequence, the figures for `COC(=O)Nc1cc(-n2cc(-c3ncc[nH]3)c(-c3ccccc3Cl)c2)c(C)cn1` [I-109, methyl {4-[3-(2-chlorophenyl)-4-(1H-imidazol-2-yl)-1H-pyrrol-1-yl]-5-methylpyridin-2-yl}carbamate] were < 50 nM and 97%.
